Reference: patent US20250049831A1, “ANTIVIRAL USE OF BISE[…], AND BISEPOXYLIGNAN COMPOSITION AND PREPARATION OF BISE[…]” (priority 2021, published 2025)

Each compound was assayed on COVID-19 virus (assay: In-vitro antiviral CPE test in Vero E6 cells, COVID-19 virus).
Format: cell-based

SMILES	COVID-19 virus SI
COc1ccc([C@H]2OC[C@H]3[C@@H]2CO[C@H]3c2ccc(O[C@@H]3O[C@H](CO)[C@@H](O)[C@H](O)[C@H]3O)c(OC)c2)cc1OC [compound 2]	30.50
COc1ccc(C2OCC3C(c4ccc(OC)c(OC)c4)OCC23)cc1O (stereo not shown) [compound 3]	5.33
COc1cc(O)cc(C2OCC3C(c4ccc(OC5OC(CO)C(O)C(O)C5O)c(OC)c4)OCC23)c1 (stereo not shown) [compound 1]	31.61
COc1ccc(C2OCC3C(c4ccc(OC(=O)C(C)c5ccc(CC(C)C)cc5)c(OC)c4)OCC23)cc1OC (stereo not shown) [compound 6]	4.72
